# Measurements: patent publication US20150335615A1, “CHOLESTEROL-LOWERING COMPOUNDS IN COMBINATION WITH LIPID METABOLISM-ALTERING COMPOUNDS OF NON-ABSORBABLE SUGARS, COMPOUNDS THAT CONVERT NH3 TO NH4+, OR HYDROGEN-GENERATING COMPOUNDS FOR THE TREATMENT OF HIGH CHOLESTEROL AND INFLAMMATION” (priority 2013, published 2015)
# “Also recorded” adds a separate entry of the source.
# What was measured:
# LDLR-KO mice [1] = assay: Weight increase of LDLR-KO mice on western diet (Example 4); type: in vivo; details: western diet 12 weeks, atorvastatin 0.16% w/w in HFD, lactulose 3 g/kg/day oral, FIG. 9
# Description: (§1) Animals: Homozygous LDL receptor knockout (LDLr−/−; C57BL/6) mice were purchased from the Jackson Laboratory (Bar Harbor, Me.). This genetically manipulated mouse strain is most commonly used for the pre-clinical study of high-fat diet induced hyperlipidemia and atherosclerosis. Nine weeks of age mice were separated into five groups (Groups #1-#5) and fed with normal diet (Group #1; Picolab, 5053) or high fat diet (Group #2-#5; HFD; Harlan Teklad, TD 88137) for 12 weeks. Atorvastatin (Lipitor) was added to the HFD (0.16% w/w) to Group #4 and Group #5. Lactulose (3 g/kg/day, in water solution) was orally administered every 12 hours to Group #3 and Group #5. The LDLR-KO mice were fed for three months with a normal or western diet, with or without lactulose, and with or without atorvastatin.
# [2] = tested on: Substance P and nerve growth factor (NGF); assay: Pain associated factors (Substance P, NGF) in mice with pregabalin; type: in vivo; details: hydrogen generated by lactulose
# LDLR knockout mice [3] = assay: Liver histology, fatty liver development in LDLR knockout mice on high fat diet (Example 3); type: in vivo; details: LDLR-KO mice, high fat diet 12 weeks; lactulose 400 mg/day oral gavage; FIG. 7
# Procedure: (§2) Low density lipoprotein receptor (LDLR) knockout mice and their wild type (C57BL6/J), were purchased from Jackson Laboratories (Bar Harbor, Me., USA). Male LDLR knockout mice (9-w old male) received control standard diet (Picolab, MO, USA; diet #5053) or high fat diet (Tekland Custom Diet, WI, USA; diet #TD88137). The LDLR mice received high fat diet were further randomly divided into four groups; G1) 20 mg/kg day atorvastatin group, G2) 400 mg/day lactulose group, G3) combination group, and G4) negative control group (no atorvastatin or lactulose). Atorvastatin was supplemented in the diet and lactulose was administered by oral gavage, twice a day. Wild type mice were maintained on the standard diet. All mice were fed with above noted respective diet for 12 weeks and sacrificed for post mortal analyses.
# Blood was collected by heart puncture at left ventricular on the sacrificed mice, followed flushing the blood circulation with PBS, and the aorta and liver lobes were removed for laboratory evaluations.
# Aortas and liver lobes were frozen in OCT compound (Sakura finetek, Japan).
# Cryosections of aortas and liver lobes were stained with hematoxylin and eosin. Atherosclerosis legions were evaluated by Oil-Red 0 staining.
# rats = details: cited from earlier work
# [4] = tested on: patients suffering from minimal hepatic encephalopathy (MHE); details: compared to placebo or no intervention; cited from earlier work
# LDLR-KO mice [5] = assay: Serum lipids and Ox-LDL in LDLR-KO mice on western diet (Example 4); type: in vivo; details: LDLR-KO mice at 1.5 months and 3 months; FIGS. 10A and 10B
# Description: as §1, with “atorvastatin. Analysis of serum samples: Lipids, including LDL and HDL, as well as oxidized low density lipoprotein (Ox-LDL) present in serum was measured using an ELISA kit (Cell biolabs).” for “atorvastatin.”
# LDLR knockout mice [6] = assay: Serum lipoproteins (HDL, LDL, Ox-LDL) in LDLR knockout mice on high fat diet (Example 3); type: in vivo
# Procedure: as §2, with “analyses. Blood was collected by heart puncture at left ventricular on the sacrificed mice, followed flushing the blood circulation with PBS, and the aorta and liver lobes were removed for laboratory evaluations. Blood was drawn from heart in the absence of anti-coagulant agents, and the serum was prepared. High-density lipoprotein cholesterol and low-density lipoprotein (LDL) cholesterol were determined by a commercial colorimetric assay (Sigma-Aldrich, MO, USA). Oxidative-LDL was measured by ELISA (Uscn Life Science, TX, USA).” for “analyses.”
# [7] = H2 amount in mice after oral inulin; type: in vivo; details: oral administration
# F. nucleatum = details: FIG. 4
# Procedure: Incubate one of the periodontal bacteria for 4 hours with/without hydrogen and measure the hydrogen sulfide concentration.
# Culture F. nucleatum (oral bacteria that produce H2S) overnight.
# Incubate F. nucleatum in H2 or N2 condition for 4 hours.
# Keep supernatant (3 ml) in 15 ml conical tube at 4° C.
# Measure the H2S concentration in the conical tube (N=5, 1:10 dilution).
compound,measurement,setting,value
OC[C@H]1O[C@@H](O[C@@H]2[C@@H](CO)OC(O)(CO)[C@H]2O)[C@H](O)[C@@H](O)[C@H]1O (mixture of isomers) [lactulose],weight increase,LDLR-KO mice [1],moderate weight increase; also recorded: suppress weight gain
same,pregabalin-mediated suppression of pain associated factors (Substance P and nerve growth factor (NGF)),[2],additive effect
same,fatty liver development,LDLR knockout mice [3],remarkable preventative effects
same,incidence of MHE,rats,decreased
same,latency of BAEP,rats,normalized
same,level of hyper-endotoxemia,rats,significantly lowered
same,level of hyperammonemia,rats,significantly lowered
same,blood ammonia levels,[4],reduced
same,health-related quality of life,[4],improved
same,progression to overt hepatic encephalopathy,[4],prevented
same,risk of no improvement in neuropsychological tests,[4],reduced
same,amount of Ox-LDL in serum,LDLR-KO mice [5],able to suppress
same,amount of HDL (good cholesterol),"LDLR knockout mice [6]; LDLR-KO mice, high fat diet 12 weeks, atorvastatin 20 mg/kg day in diet, lactulose 400 mg/day oral gavage, FIG. 8A",didn't change
same,LDL (bad cholesterol) levels,"LDLR knockout mice [6]; LDLR-KO mice, high fat diet 12 weeks, atorvastatin 20 mg/kg day in diet, lactulose 400 mg/day oral gavage, FIG. 8B",no effects; also recorded: did not change
same,blood Ox-LDL caused by a fat diet,"LDLR knockout mice [6]; lactulose by itself, previously found",can suppress
Inulin,amount of H2,[7],elevates
hydrogen,production of dimethyl sulfide (DMS),F. nucleatum; F. nucleatum cultured with H2,elevated production
same,Hydrogen sulfide (H2S) concentration,F. nucleatum; F. nucleatum incubated in H2 or N2 condition for 4 hours,tends to be reduced
